Test results reported in patent US8546375B2, “(3-(4-(aminomethyl)phenoxy or phenylthio)azetidin-1-yl)(5-phenyl-1,3,4-oxadiazol-2-yl)methanone compounds” (AstraZeneca AB, priority 2010, dated 2013).
Counter-ions that a name gives are not always drawn. Like-named read-outs stand apart in the source and are kept apart here.

Molecular target: T1, Melanin Concentrating Hormone Receptor 1 (MCHR1) (Homo sapiens, UniProt Q99705)
T1 construct: expressed in transfected cells
Experiment: MCHR1 Receptor Activation Assay (GTPγ^35S)
Format: biochemical

[1] = separated enantiomers of Example 84 (chiral chromatography fractions), assay not given, read-out: IC50
[2] = when tested in the above referenced assays (MCH binding assay; MCHR1 receptor activation assay), read-out: IC50 value

T1 sequence (Q99705 whole entry): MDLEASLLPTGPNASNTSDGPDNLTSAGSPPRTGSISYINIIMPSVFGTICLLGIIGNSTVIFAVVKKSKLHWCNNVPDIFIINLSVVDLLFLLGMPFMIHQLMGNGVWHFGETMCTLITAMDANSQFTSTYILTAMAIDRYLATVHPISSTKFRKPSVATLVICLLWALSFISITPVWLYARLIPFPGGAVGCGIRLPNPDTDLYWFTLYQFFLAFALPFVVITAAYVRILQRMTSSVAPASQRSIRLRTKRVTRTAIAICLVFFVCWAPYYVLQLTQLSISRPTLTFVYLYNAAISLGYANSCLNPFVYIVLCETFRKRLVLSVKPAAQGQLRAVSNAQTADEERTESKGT

| IC50 (read-out: GTPγ^35S IC50) | SMILES | other results |
| --- | --- | --- |
| – | COc1ccc(-c2nnc(C(=O)N3CC(Oc4ccc(CN5CCC(C)(CO)C5)cc4)C3)o2)cc1 (single isomer, unassigned; (+)) [Example E2, (+)(3-(4-((3-(hydroxymethyl)-3-methylpyrrolidin-1-yl)methyl)phenoxy)azetidin-1-yl)(5-(4-methoxyphenyl)-1,3,4-oxadiazol-2-yl)methanone] | IC50 [1]: 24 nM |
| – | COc1ccc(-c2nnc(C(=O)N3CC(Oc4ccc(CN5CCC(C)(CO)C5)cc4)C3)o2)cc1 (single isomer, unassigned; (-)) [Example E1, (−)(3-(4-((3-(hydroxymethyl)-3-methylpyrrolidin-1-yl)methyl)phenoxy)azetidin-1-yl)(5-(4-methoxyphenyl)-1,3,4-oxadiazol-2-yl)methanone] | IC50 [1]: 28 nM |
| – | COc1ccc(-c2nnc(C(=O)N3CC(Oc4ccc(CN(C)C)c(OC(F)F)c4)C3)o2)cc1 [(3-(3-(difluoromethoxy)-4-((dimethylamino)methyl)phenoxy)azetidin-1-yl)(5-(4-methoxyphenyl)-1,3,4-oxadiazol-2-yl)methanone] | IC50 [2]: ≥ 100 nM |
| – | COCCN(CCOC)Cc1ccc(OC2CN(C(=O)c3nnc(-c4ccccc4)o3)C2)cc1 [(3-(4-((bis(2-methoxyethyl)amino)methyl)phenoxy)azetidin-1-yl)(5-phenyl-1,3,4-oxadiazol-2-yl)methanone] | IC50 [2]: ≥ 100 nM |
| – | O=C(c1nnc(-c2ccccc2)o1)N1CC(Oc2ccc(CNC3COC3)cc2)C1 [(3-(4-((oxetan-3-ylamino)methyl)phenoxy)azetidin-1-yl)(5-sphenyl-1,3,4-oxadiazol-2-yl)methanone] | IC50 [2]: ≥ 100 nM |
| 7 nM | O=C(c1nnc(-c2ccc(Cl)cc2)o1)N1CC(Oc2ccc(CN3CCCC3)cc2)C1 [Example 1, (5-(4-Chlorophenyl)-1,3,4-oxadiazol-2-yl)(3-(4-(pyrrolidin-1-ylmethyl)phenoxy)azetidin-1-yl)methanone] | – |
| 27 nM | O=C(c1nnc(-c2ccccc2)o1)N1CC(Oc2ccc(CN3CCCC3)cc2)C1 [Example 3, (5-Phenyl-1,3,4-oxadiazol-2-yl)(3-(4-(pyrrolidin-1-ylmethyl)phenoxy)azetidin-1-yl)methanone] | – |
| 20 nM | O=C(c1nnc(-c2ccc(F)cc2)o1)N1CC(Oc2ccc(CN3CCCC3)cc2)C1 [Example 4, (5-(4-Fluorophenyl)-1,3,4-oxadiazol-2-yl)(3-(4-(pyrrolidin-1-ylmethyl)phenoxy)azetidin-1-yl)methanone] | – |
| 15 nM | O=C(c1nnc(-c2ccc(C(F)(F)F)cc2)o1)N1CC(Oc2ccc(CN3CCCC3)cc2)C1 [Example 5, (3-(4-(Pyrrolidin-1-ylmethyl)phenoxy)azetidin-1-yl)(5-(4-(trifluoromethyl)phenyl)-1,3,4-oxadiazol-2-yl)methanone formate] | – |
| 19 nM | Cc1ccc(-c2nnc(C(=O)N3CC(Oc4ccc(CN5CCCC5)cc4)C3)o2)cc1 [Example 6, (3-(4-(Pyrrolidin-1-ylmethyl)phenoxy)azetidin-1-yl)(5-p-tolyl-1,3,4-oxadiazol-2-yl)methanone hydrochloride] | – |
| 21 nM | COc1cc(OC2CN(C(=O)c3nnc(-c4ccccc4)o3)C2)ccc1CN1CCOCC1 [Example 7, (3-(3-Methoxy-4-(morpholinomethyl)phenoxy)azetidin-1-yl)(5-phenyl-1,3,4-oxadiazol-2-yl)methanone] | – |
| 44 nM | Cc1cc(CN2CCN(C)CC2)ccc1OC1CN(C(=O)c2nnc(-c3ccccc3)o2)C1 [Example 9, (3-(2-Methyl-4-((4-methylpiperazin-1-yl)methyl)phenoxy)azetidin-1-yl)(5-phenyl-1,3,4-oxadiazol-2-yl)methanone] | – |
| 41 nM | COc1ccc(-c2nnc(C(=O)N3CC(Oc4ccc(CN5CCN(C)CC5)cc4C)C3)o2)cc1 [Example 10, (5-(4-Methoxyphenyl)-1,3,4-oxadiazol-2-yl)(3-(2-methyl-4-((4-methylpiperazin-1-yl)methyl)phenoxy)azetidin-1-yl)methanone] | – |
| 51 nM | Cc1ccc(-c2nnc(C(=O)N3CC(Oc4ccc(CN5CCN(C)CC5)cc4C)C3)o2)cc1 [Example 11, (3-(2-Methyl-4-((4-methylpiperazin-1-yl)methyl)phenoxy)azetidin-1-yl)(5-p-tolyl-1,3,4-oxadiazol-2-yl)methanone] | – |
| 30 nM | COc1ccc(-c2nnc(C(=O)N3CC(Oc4ccc(CN5CCOCC5)cc4C)C3)o2)cc1 [Example 12, (5-(4-Methoxyphenyl)-1,3,4-oxadiazol-2-yl)(3-(2-methyl-4-(morpholinomethyl)-phenoxy)azetidin-1-yl)methanone] | – |
| 29 nM | Cc1ccc(-c2nnc(C(=O)N3CC(Oc4ccc(CN5CCOCC5)cc4C)C3)o2)cc1 [Example 13, (3-(2-Methyl-4-(morpholinomethyl)phenoxy)azetidin-1-yl)(5-p-tolyl-1,3,4-oxadiazol-2-yl)methanone] | – |
| 30 nM | Cc1cc(CN2CCOCC2)ccc1OC1CN(C(=O)c2nnc(-c3ccccc3)o2)C1 [Example 14, (3-(2-Methyl-4-(morpholinomethyl)phenoxy)azetidin-1-yl)(5-phenyl-1,3,4-oxadiazol-2-yl)methanone] | – |
| 10 nM | Cc1cc(CN2CCOCC2)ccc1OC1CN(C(=O)c2nnc(-c3ccc(Cl)cc3)o2)C1 [Example 15, (5-(4-Chlorophenyl)-1,3,4-oxadiazol-2-yl)(3-(2-methyl-4-(morpholinomethyl)phenoxy)azetidin-1-yl)methanone] | – |
| 25 nM | COc1ccc(-c2nnc(C(=O)N3CC(Oc4ccc(CN(C)C)cc4C)C3)o2)cc1 [Example 17, (3-(4-((Dimethylamino)methyl)-2-methylphenoxy)azetidin-1-yl)(5-(4-methoxyphenyl)-1,3,4-oxadiazol-2-yl)methanone] | – |
| 25 nM | Cc1ccc(-c2nnc(C(=O)N3CC(Oc4ccc(CN(C)C)cc4C)C3)o2)cc1 [Example 18, (3-(4-((Dimethylamino)methyl)-2-methylphenoxy)azetidin-1-yl)(5-p-tolyl-1,3,4-oxadiazol-2-yl)methanone] | – |
| 6.5 nM | Cc1cc(CN2CCCC2)ccc1OC1CN(C(=O)c2nnc(-c3ccc(Cl)cc3)o2)C1 [Example 19, (5-(4-Chlorophenyl)-1,3,4-oxadiazol-2-yl)(3-(2-methyl-4-(pyrrolidin-1-ylmethyl)phenoxy)azetidin-1-yl)methanone] | – |
| 24 nM | COc1ccc(-c2nnc(C(=O)N3CC(Oc4ccc(CN(C)C)c(C)c4)C3)o2)cc1 [Example 20, (3-(4-((Dimethylamino)methyl)-3-methylphenoxy)azetidin-1-yl)(5-(4-methoxyphenyl)-1,3,4-oxadiazol-2-yl)methanone] | – |
| 25 nM | Cc1ccc(-c2nnc(C(=O)N3CC(Oc4ccc(CN(C)C)c(C)c4)C3)o2)cc1 [Example 22, (3-(4-((Dimethylamino)methyl)-3-methylphenoxy)azetidin-1-yl)(5-p-tolyl-1,3,4-oxadiazol-2-yl)methanone] | – |
| 99 nM | CC(=O)N1CCN(Cc2ccc(OC3CN(C(=O)c4nnc(-c5ccccc5)o4)C3)cc2)CC1 [Example 23, 1-(4-(4-(1-(5-Phenyl-1,3,4-oxadiazole-2-carbonyl)azetidin-3-yloxy)benzyl)piperazin-1-yl)ethanone] | – |
| 44 nM | COc1ccc(-c2nnc(C(=O)N3CC(Oc4ccc(CN5CCN(C(C)=O)CC5)cc4)C3)o2)cc1 [Example 24, 1-(4-(4-(1-(5-(4-Methoxyphenyl)-1,3,4-oxadiazole-2-carbonyl)azetidin-3-yloxy)benzyl)piperazin-1-yl)ethanone] | – |
